target: Protein smoothened (Homo sapiens, UniProt Q99835); assay: Displacement of Bodipy-labelled cyclopamine from Smo expressed in COS-1 cells in presence of 2% FBS after 4 to 6 hrs by FACS flow cytometric analysis; assay type: cell-based
Sequence (Q99835 whole entry): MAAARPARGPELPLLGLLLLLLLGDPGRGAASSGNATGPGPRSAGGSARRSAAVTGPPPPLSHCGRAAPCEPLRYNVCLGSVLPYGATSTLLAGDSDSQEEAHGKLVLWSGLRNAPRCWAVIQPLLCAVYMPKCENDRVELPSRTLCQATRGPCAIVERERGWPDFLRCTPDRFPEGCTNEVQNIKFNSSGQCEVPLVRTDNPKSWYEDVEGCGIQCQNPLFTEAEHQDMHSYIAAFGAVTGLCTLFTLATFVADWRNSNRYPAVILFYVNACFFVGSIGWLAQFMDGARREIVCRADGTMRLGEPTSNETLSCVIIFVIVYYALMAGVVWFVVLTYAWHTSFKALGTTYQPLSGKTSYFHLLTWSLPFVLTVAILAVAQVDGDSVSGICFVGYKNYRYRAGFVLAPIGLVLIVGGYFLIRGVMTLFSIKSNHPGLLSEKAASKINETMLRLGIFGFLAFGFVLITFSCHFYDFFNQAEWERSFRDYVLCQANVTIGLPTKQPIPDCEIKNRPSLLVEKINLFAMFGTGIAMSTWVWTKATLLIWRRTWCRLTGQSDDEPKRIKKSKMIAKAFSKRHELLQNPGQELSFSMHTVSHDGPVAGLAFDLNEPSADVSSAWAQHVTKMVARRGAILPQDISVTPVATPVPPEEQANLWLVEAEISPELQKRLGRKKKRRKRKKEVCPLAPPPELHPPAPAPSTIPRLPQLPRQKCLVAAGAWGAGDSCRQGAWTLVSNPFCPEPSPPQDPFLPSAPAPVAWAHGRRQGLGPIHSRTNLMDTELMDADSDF

Row | IC50 [nM] | Structure (SMILES)
1 | > 2500 | O=C(Nc1ccccc1Cl)N1CCC(c2nc(-c3ccc4ccncc4n3)no2)CC1
2 | 350 | CC(C)c1ccccc1NC(=O)N1CCC(c2nc(-c3ccc4ccccc4n3)no2)CC1
3 | 1100 | O=C(Nc1ccccc1Cl)N1CCC(c2nc(-c3cnc4ccccc4n3)no2)CC1
4 | 2200 | O=C(Nc1ccccc1Cl)N1CCC(c2nc(-c3ccc4cnccc4n3)no2)CC1
5 | > 2500 | O=C(Nc1ccccc1Cl)N1CCC(c2nc(-c3ccc4ncccc4n3)no2)CC1
6 | 180 | COc1ccccc1NC(=O)N1CCC(c2nc(-c3ccc4ccccc4n3)no2)CC1
7 | 620 | C[C@@H]1C[C@H](c2nc(-c3ccc4ccccc4n3)no2)CCN1C(=O)Nc1ccccc1Cl
8 | 670 | O=C(N1CCC(c2nc(-c3ccc4ccccc4n3)no2)CC1)N1CCCc2ccccc21
9 | > 2500 | Clc1ccccc1CN1CCC(c2nc(-c3ccc4ccccc4n3)no2)CC1
10 | 480 | O=C(Nc1ccccc1)N1CCC(c2nc(-c3ccc4ccccc4n3)no2)CC1
11 | 1900 | N#Cc1ccc(NC(=O)N2CCC(c3nc(-c4ccc5ccccc5n4)no3)CC2)c(Cl)c1
12 | 1800 | COc1ccc2nc(-c3noc(C4CCN(C(=O)Nc5ccccc5Cl)CC4)n3)ccc2c1
13 | > 2500 | CCNC(=O)N1CCC(c2nc(-c3ccc4ccccc4n3)no2)CC1
14 | > 2500 | O=C(c1ccccc1Cl)N1CCC(c2nc(-c3ccc4ccccc4n3)no2)CC1
15 | 470 | O=C(Nc1ccc(Cl)cc1)N1CCC(c2nc(-c3ccc4ccccc4n3)no2)CC1
16 | > 2500 | O=C(Nc1ccccc1Cl)N1CCC(c2nc(-c3ncc4ccccc4n3)no2)CC1

Further lines, the molecule ahead of its results:

Row | Structure (SMILES) | IC50 [nM]
17 | O=C(OC1CCCCC1)N1CCC(c2nc(-c3ccc4ccccc4n3)no2)CC1 | 280
18 | O=C(Nc1ccccc1Cl)N1CCC(O)(c2nc(-c3ccc4ccccc4n3)no2)CC1 | 2100
19 | O=C(NC1CCCC1)N1CCC(c2nc(-c3ccc4ccccc4n3)no2)CC1 | 420
20 | O=C(Nc1ccccc1Cl)N1CCC(c2nc(-c3nccc4ccccc34)no2)CC1 | > 2500
21 | O=C(Nc1ccccc1Cl)N1CCC(c2nc(-c3ccccn3)no2)CC1 | > 2500
22 | COc1ccccc1NC(=O)N1CCC(c2nc(-c3cnccn3)no2)CC1 | > 2500
23 | COc1cccc2ccc(-c3noc(C4CCN(C(=O)Nc5ccccc5Cl)CC4)n3)nc12 | > 2500
24 | O=C(Nc1ccccc1Cl)N1CCC(F)(c2nc(-c3ccc4ccccc4n3)no2)CC1 | 1000
25 | c1ccc2nc(-c3noc(C4CCN(CC5CCCCC5)CC4)n3)ccc2c1 | > 2500
26 | O=C(Nc1ccccc1Cl)N1CCC(c2nc(-c3cccnc3)no2)CC1 | > 2500
27 | O=C(Nc1ccccc1Cl)N1CCC(c2nc(-c3ncccn3)no2)CC1 | > 2500
28 | O=C(Nc1ccccc1Cl)N1CCC(c2nc(-c3cnccn3)no2)CC1 | > 2500
29 | O=C(Nc1ccccc1Cl)N1CCC(c2nc(-c3cnc4ccccc4c3)no2)CC1 | > 2500
30 | COc1ccccc1NC(=O)N1CCC(c2nc(-c3cc4ccccc4cn3)no2)CC1 | 750
31 | COc1ccccc1NC(=O)N1CCC(c2nc(-c3ccncc3)no2)CC1 | > 2500
32 | COc1ccccc1NC(=O)N1CCC(c2nc(-c3ncccn3)no2)CC1 | > 2500
33 | COc1ccccc1NC(=O)N1CCC(c2nc(-c3nccc4ccccc34)no2)CC1 | > 2500
34 | COc1ccccc1NC(=O)N1CCC(c2nc(-c3ccccn3)no2)CC1 | > 2500
35 | COc1ccccc1NC(=O)N1CCC(c2nc(-c3cccnc3)no2)CC1 | > 2500
36 | COc1ccccc1NC(=O)N1CCC(c2nc(-c3ccccc3C)no2)CC1 | > 2500
37 | O=C(Nc1ccccc1Cl)N1CCC(c2nc(-c3ccccc3)no2)CC1 | > 2500
38 | COc1ccccc1NC(=O)N1CCC(c2nc(-c3ccccc3)no2)CC1 | > 2500
39 | COc1ccccc1NC(=O)N1CCC(c2nc(-c3cnc4ccccc4c3)no2)CC1 | 1900
40 | COc1ccccc1NC(=O)N1CCC(c2nc(-c3ccc4ccccc4c3)no2)CC1 | 2200

tested on: Shh Light II; assay: Inhibition of Shh signaling in mouse Shh-light2 cells by Gli-dependent firefly luciferase reporter gene assay; assay type: functional, cell-based

Row | IC50 [nM] | Structure (SMILES)
41 | 480 | CC(C)c1ccccc1NC(=O)N1CCC(c2nc(-c3ccc4ccccc4n3)no2)CC1
42 | 410 | COc1ccccc1NC(=O)N1CCC(c2nc(-c3ccc4ccccc4n3)no2)CC1
43 | 2400 | C[C@@H]1C[C@H](c2nc(-c3ccc4ccccc4n3)no2)CCN1C(=O)Nc1ccccc1Cl
44 | 2300 | O=C(N1CCC(c2nc(-c3ccc4ccccc4n3)no2)CC1)N1CCCc2ccccc21

The next lines start with the molecule.

Row | Structure (SMILES) | IC50 [nM]
45 | O=C(OC1CCCCC1)N1CCC(c2nc(-c3ccc4ccccc4n3)no2)CC1 | 580
46 | O=C(Nc1ccccc1Cl)N1CCC(O)(c2nc(-c3ccc4ccccc4n3)no2)CC1 | 1300
47 | O=C(NC1CCCC1)N1CCC(c2nc(-c3ccc4ccccc4n3)no2)CC1 | 630
48 | O=C(Nc1ccccc1Cl)N1CCC(F)(c2nc(-c3ccc4ccccc4n3)no2)CC1 | 1300

Reference: ChEMBL document CHEMBL1821555, “Identification of a series of 4-[3-(quinolin-2-yl)-1,2,4-oxadiazol-5-yl]piperazinyl ureas as potent smoothened antagonist hedgehog pathway inhibitors” (Bioorg Med Chem Lett, 2011)
